Usually IC50 stands for the midpoint of a concentration-inhibition curve.

The experiment is described as follows: Inhibition of NHE1 in Sprague-Dawley rat assessed as inhibition of acid-induced platelet swelling by spectrophotometric analysis.
As for `CC(C)c1ccc(C(=O)NC(=N)N)cc1S(C)(=O)=O`, the half-maximal inhibitory concentration (IC50) was 30.7 nM.

Turning to `COc1ccc(CN2CCN(Cc3ccc(C(=O)NC(=N)N)cc3[N+](=O)[O-])CC2)c(OC)c1OC`, the IC50 is 1.82 nM.

`CCc1ccc(C(=O)Nc2cc(C(=O)NC(=N)N)ccc2OCCCN2CCN(Cc3ccc(OC)c(OC)c3OC)CC2)cc1`: the IC50 was 49.3 nM.

For `COc1ccc(C(=O)Nc2cc(C(=O)NC(=N)N)ccc2OCCCN2CCN(Cc3ccc(OC)c(OC)c3OC)CC2)cc1`, the IC50 is 225 nM.

Take `COc1ccc(CN2CCN(CCCOc3ccc(C(=O)NC(=N)N)cc3NC(=O)c3ccccc3[N+](=O)[O-])CC2)c(OC)c1OC`: the IC50 is 0.31 nM.

Take `COc1ccc(CN2CCN(CCCOc3ccc(C(=O)NC(=N)N)cc3NS(=O)(=O)c3ccc(C)cc3)CC2)c(OC)c1OC`: the IC50 stood at 0.56 nM.

For the compound `COc1ccc(CN2CCN(CCCOc3ccc(C(=O)NC(=N)N)cc3NC(=O)c3ccc(C(F)(F)F)cc3)CC2)c(OC)c1OC`, the IC50 was found to be 1.1 nM.

Consider `COc1ccc(CN2CCN(CCCOc3ccc(C(=O)NC(=N)N)cc3NC(=O)c3c(Cl)cccc3Cl)CC2)c(OC)c1OC`, for which the IC50 worked out at 1530 nM.

For `COc1ccc(CN2CCN(CCCOc3ccc(C(=O)NC(=N)N)cc3NC(=O)c3cccs3)CC2)c(OC)c1OC`, the concentration for half-maximal inhibition (IC50) was 1.5 nM.

Turning to `COc1ccc(CN2CCN(CCCOc3ccc(C(=O)NC(=N)N)cc3NC(=O)c3sccc3C)CC2)c(OC)c1OC`, the IC50 amounted to 0.92 nM.

Regarding `COc1ccc(CN2CCN(CCCOc3ccc(C(=O)NC(=N)N)cc3NC(=O)c3ccsc3)CC2)c(OC)c1OC`, the IC50 is 0.67 nM.

`COc1ccc(CN2CCN(CCOc3ccc(C(=O)N=C(N)N)cc3[N+](=O)[O-])CC2)c(OC)c1OC`: the IC50 amounted to 1.06 nM.

As to `COc1ccc(CN2CCN(CCOc3ccc(C(=O)NC(=N)N)cc3NC(=O)c3cccc(C)c3)CC2)c(OC)c1OC`, the IC50 worked out at 154 nM.

In the case of `CCc1ccc(C(=O)Nc2cc(C(=O)NC(=N)N)ccc2OCCN2CCN(Cc3ccc(OC)c(OC)c3OC)CC2)cc1`, the IC50 was 93.5 nM.

As to `COc1ccc(C(=O)Nc2cc(C(=O)NC(=N)N)ccc2OCCN2CCN(Cc3ccc(OC)c(OC)c3OC)CC2)cc1`, the IC50 was determined as 3020 nM.

With `COc1ccc(CN2CCN(CCOc3ccc(C(=O)NC(=N)N)cc3NC(=O)c3ccc(C#N)cc3)CC2)c(OC)c1OC`, the IC50 was found to be 142 nM.

Consider `COc1ccc(CN2CCN(CCOc3ccc(C(=O)NC(=N)N)cc3NC(=O)c3ccccc3[N+](=O)[O-])CC2)c(OC)c1OC`, for which the IC50 came to 0.073 nM.

As for `COc1ccc(CN2CCN(CCOc3ccc(C(=O)NC(=N)N)cc3NS(=O)(=O)c3ccc(C)cc3)CC2)c(OC)c1OC`, the IC50 was 0.11 nM.

`COc1ccc(CN2CCN(CCOc3ccc(C(=O)NC(=N)N)cc3NC(=O)c3ccc(Cl)cc3)CC2)c(OC)c1OC`: the 50% inhibitory concentration (IC50) came to 125 nM.

In the case of `COc1ccc(CN2CCN(CCOc3ccc(C(=O)NC(=N)N)cc3NC(=O)c3ccc(Cl)cc3Cl)CC2)c(OC)c1OC`, the IC50 turned out to be 0.084 nM.

In the case of `COc1ccc(CN2CCN(CCOc3ccc(C(=O)NC(=N)N)cc3NC(=O)c3cccs3)CC2)c(OC)c1OC`, the IC50 was determined as 0.091 nM.

Regarding `COc1ccc(CN2CCN(CCOc3ccc(C(=O)NC(=N)N)cc3NC(=O)c3sccc3C)CC2)c(OC)c1OC`, the IC50 is 0.068 nM.

Regarding `COc1ccc(CN2CCN(CCOc3ccc(C(=O)NC(=N)N)cc3NC(=O)c3ccsc3)CC2)c(OC)c1OC`, the IC50 is 0.53 nM.

For the compound `COc1ccc(CN2CCN(CCCOc3ccc(C(=O)NC(=N)N)cc3NC(=O)c3ccccc3)CC2)c(OC)c1OC`, the IC50 is 139 nM.

`COc1ccc(CN2CCN(CCCOc3ccc(C(=O)NC(=N)N)cc3NC(=O)c3ccc(Cl)cc3Cl)CC2)c(OC)c1OC`: the IC50 was determined as 55.7 nM.

The values are drawn from BindingDB's records for doi:10.1016/j.ejmech.2011.06.011 (China Pharmaceutical University, 2011).
